{"source": "patent US20220033432A1", "about": "“ANTI-HEPATITIS B VIRUS AGENT” (priority 2019, published 2022)", "key": {"[1]": {"tested_on": "HBV", "experiment": "Anti-HBV activity: intracellular HBV DNA by quantitative PCR in HepG2.2.15 cells", "type": "cell-based", "details": "Hepatitis B virus, read-out: EC50 (50% effective concentration), anti-HBV activity", "procedure": "Anti-HBV activity was evaluated by quantitative PCR for determining the amount of HBV DNA in cells on the seventh day after the addition of the agent, using the HepG2.2.15 cell line of HBV-producing cells obtained by introducing a gene having a length twice that of the HBV genome into the human liver cancer cell line HepG2. For PCR of HBV DNA, a forward primer (HBV-S190F; 5′-GCT CGT OTT ACA GGC GGG-3′: SEQ ID NO: 1) and a reverse primer (HBV-S703R; 5′-GAA CCA CTG AAC AAA TOG CAC TAG TA-3′: SEQ ID NO: 2) were used. PCR was performed by carrying out a reaction at 95° C. for 10 sec, 62° C. for 10 sec, and 72° C. for 30 sec for 35 cycles.\nSpecifically, HepG2.2.15 cells were seeded at a concentration of 1×10^5 cells/well. 24 hours later, the compounds of Example 1 and Comparative Example 1 were diluted to have a concentration of 0, 0.49, 0.97, 1.95, 3.90, 7.81, 15.6, 31.3, 62.5, 125, 250, 500, and 1000 nM, and added to the cells. After the cells were cultured for 7 days, each cytoplasmic compartment was collected, and DNA was purified by phenol-chloroform extraction. 20 ng of the purified DNA was used to measure the amount of intracellular HBV DNA by quantitative PCR.\nThe EC50 (50% effective concentration) was calculated from a graph showing the relationship between the concentration of the compound and anti-HBV activity."}, "[2]": {"experiment": "Cytotoxicity test (WST-1) in HepG2 NTCP-myc cells", "type": "cell-based", "details": "human, 7 days culture, read-out: CC50 (50% cytotoxic concentration)", "procedure": "HepG2 NTCP-myc cells were seeded at a concentration of 2×10^4 cells/well. 24 hours later, the compound of Example 1 was diluted to have a concentration of 0, 0.49, 0.97, 1.95, 3.90, 7.81, 15.6, 31.3, 62.5, 125, 250, 500, and 1000 nM, and added to the cells. The HepG2 NTCP-myc cells were cultured for 7 days. After the culture, 10 μl of Premix WST-1 Cell Proliferation Assay System (TaKaRa) was added, and the cells were cultured at 37° C. for 2 hours. Thereafter, absorbance was determined at 450 nm using a microplate reader.\nThe CC50 (50% cytotoxic concentration) was calculated from a graph showing the relationship between the concentration of the compound and cytotoxicity."}, "[3]": {"details": "168 h, HepG2.2.15 cells, intracellular HBV DNA, day 7 after addition"}}, "note": "Like-named read-outs stand apart in the source and are kept apart here.", "data": [{"compound": "OC[C@H]1O[C@@H](n2cnc3c(Cl)nc(Cl)nc32)[C@@H](F)[C@@H]1O", "note": "[Comparative Example 1, 2,6-dichloro-9-((2R,3S,4R,5R)-3-fluoro-4-hydroxy-5-(hydroxymethyl)tetrahydrofuran-2-yl)-9H-purine, reference compound]", "values": [{"measurement": "EC50", "setting": "[1]; [3]", "value": "> 10000", "unit": "nM"}]}, {"compound": "Nc1nc(Cl)c2ncn([C@@H]3O[C@H](CO)C(O)C3F)c2n1", "note": "(stereo partly drawn) [Example 1, 9-(2′-deoxy-2′-fluoro-β-D-arabinofuranos-1′-yl)-2-amino-6-chloropurine]", "values": [{"measurement": "EC50", "setting": "[1]; [3]", "value": 11.8, "unit": "nM"}, {"measurement": "CC50 at 7 days", "setting": "[2]", "value": "> 500000", "unit": "nM"}]}, {"compound": "Nc1nc(F)c2ncn([C@@H]3O[C@H](CO)C(O)C3F)c2n1", "note": "(stereo partly drawn) [Example 2, 9-(2′-deoxy-2′-fluoro-β-D-arabinofuranos-1′-yl)-2-amino-6-fluoropurine]", "values": [{"measurement": "EC50", "setting": "[1]; [3]", "value": 880, "unit": "nM"}, {"measurement": "CC50 at 7 days", "setting": "[2]", "value": 337000, "unit": "nM"}]}, {"compound": "Nc1nc(I)c2ncn([C@@H]3O[C@H](CO)C(O)C3F)c2n1", "note": "(stereo partly drawn) [Example 3, 9-(2′-deoxy-2′-fluoro-β-D-arabinofuranos-1′-yl)-2-amino-6-]", "values": [{"measurement": "EC50", "setting": "[1]; [3]", "value": 990, "unit": "nM"}, {"measurement": "CC50 at 7 days", "setting": "[2]", "value": "> 500000", "unit": "nM"}]}, {"compound": "Nc1nc(N)c2ncn([C@@H]3O[C@H](CO)C(O)C3F)c2n1", "note": "(stereo partly drawn) [Example 4, 9-(2′-deoxy-2′-fluoro-β-D-arabinofuranos-1′-yl)-2-amino-6-aminopurine]", "values": [{"measurement": "EC50", "setting": "[1]; HepG2.2.15, 168 h", "value": 2020, "unit": "nM"}, {"measurement": "CC50 at 7 days", "setting": "[2]", "value": "> 500000", "unit": "nM"}]}, {"compound": "COc1nc(N)nc2c1ncn2[C@@H]1O[C@H](CO)C(O)C1F", "note": "(stereo partly drawn) [Example 5, 9-(2′-deoxy-2′-fluoro-β-D-arabinofuranos-1′-yl)-2-amino-6-methoxypurine]", "values": [{"measurement": "EC50", "setting": "[1]; [3]", "value": 1630, "unit": "nM"}, {"measurement": "CC50 at 7 days", "setting": "[2]", "value": "> 500000", "unit": "nM"}]}, {"compound": "N#Cc1nc(N)nc2c1ncn2[C@@H]1O[C@H](CO)C(O)C1F", "note": "(stereo partly drawn) [Example 6, 9-(2′-deoxy-2′-fluoro-β-D-arabinofuranos-1′-yl)-2-amino-6-cyanopurine]", "values": [{"measurement": "EC50", "setting": "[1]; [3]", "value": 930, "unit": "nM"}, {"measurement": "CC50 at 7 days", "setting": "[2]", "value": "> 500000", "unit": "nM"}]}]}
